Where a name gives a salt, the structure may show the parent alone.
Assay: Humidifying Nilotinib.3HCl: water content measured at regular intervals in a closed glass container with saturated potassium chloride solution
Assay type: physicochemical
Settings: for water content (M/C) After 72 Hrs: after 72 Hrs in closed container over saturated potassium chloride solution; for water content (M/C) After 72 Hrs / water content (M/C) After 96 Hrs / M/C Initial (water content): tri hydrochloride; for water content (M/C) After 96 Hrs: after 96 Hrs in closed container over saturated potassium chloride solution; for M/C Initial (water content): before humidifying
Description: Weight 4.0 gms (having HPLC purity is 90%) Crude Nilotinib Tri hydrochloride in dry Petri dish and placed in to closed glass container containing (saturated Potassium chloride solution) at 20 to 25 temperature, the water content of crude Nilotinib was measured by regular interval.
Weight 4.0 gms (having HPLC purity is 97.91%) Pure Nilotinib Tri hydrochloride in dry Petri dish and placed in to closed glass container containing (saturated Potassium chloride solution) at 20 to 25 temperature, the water content of Pure Nilotinib was measured by regular interval.

SMILES: Cc1cn(-c2cc(NC(=O)c3ccc(C)c(Nc4nccc(-c5cccnc5)n4)c3)cc(C(F)(F)F)c2)cn1 [Nilotinib.3HCl (Pure), 3-(4-(pyridin-3-yl)pyrimidin-2-ylamino)-N-(3-(trifluoromethyl)-5-(4-methyl-1H-imidazol-1-yl)phenyl)-4-methylbenzamide tri hydrochloride]
- water content (M/C) After 72 Hrs (20 to 25 temperature): 14.90%
- water content (M/C) After 96 Hrs (20 to 25 temperature): 14.41%
- M/C Initial (water content): 4.55%

SMILES: Cc1cn(-c2cc(NC(=O)c3ccc(C)c(Nc4nccc(-c5cccnc5)n4)c3)cc(C(F)(F)F)c2)cn1 [Nilotinib.3HCl (crude), 3-(4-(pyridin-3-yl)pyrimidin-2-ylamino)-N-(3-(trifluoromethyl)-5-(4-methyl-1H-imidazol-1-yl)phenyl)-4-methylbenzamide tri hydrochloride]
- water content (M/C) After 24 Hrs (after 24 Hrs in closed container over saturated potassium chloride solution, 20 to 25 temperature): 16.33%
- water content (M/C) After 48 Hrs (after 48 Hrs in closed container over saturated potassium chloride solution, 20 to 25 temperature): 16.89%
- water content (M/C) After 72 Hrs (20 to 25 temperature): 16.40%
- water content (M/C) After 96 Hrs (20 to 25 temperature): 16.36%
- water content (M/C) After 120 Hrs (after 120 Hrs in closed container over saturated potassium chloride solution, 20 to 25 temperature): 16.53%
- M/C Initial (water content): 4.31%
